Results reported in ChEMBL document CHEMBL1201862, “PubChem BioAssay data set” (2004).
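A five-concentration, 48-hour dose response in 96-well plates underlies each endpoint, interpolated linearly between surrounding concentrations. GI50: concentration for 50% inhibition of growth.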 The source made the active and inactive calls. No stated cut-off is given here; in the data, active = GI50 up to about 1.1 µM and inactive = higher.

How the values were obtained:
Assay in all cases: NCI-60 cell line screen, 48 h
[1] = tested on: SK-MEL-5
[2] = tested on: SF-268
[3] = tested on: MDA-MB-231
[4] = tested on: U-251
[5] = tested on: NCI-H460
[6] = tested on: OVCAR-8
[7] = tested on: MDA-N
[8] = tested on: ACHN
[9] = tested on: MCF7
[10] = tested on: DU-145
[11] = tested on: RXF 393
[12] = tested on: MDA-MB-435
[13] = tested on: SF-295
[14] = tested on: SF-539
[15] = tested on: UACC-257
[16] = tested on: EKVX
[17] = tested on: HCT-116
[18] = tested on: MOLT-4
[19] = tested on: A498
[20] = tested on: SNB-75

SMILES | GI50 [1] | GI50 [2] | GI50 [3] | GI50 [4] | GI50 [5] | GI50 [6] | GI50 [7] | GI50 [8] | GI50 [9] | GI50 [10] | GI50 [11] | GI50 [12] | GI50 [13] | GI50 [14] | GI50 [15] | GI50 [16] | GI50 [17] | GI50 [18] | GI50 [19] | GI50 [20]
CCC(=N\NC(N)=S)/C(C)=N/O | > 100 µM (inactive) | > 100 µM (inactive) | > 100 µM (inactive) | > 100 µM (inactive) | > 100 µM (inactive) | > 100 µM (inactive) | > 100 µM (inactive) | > 100 µM (inactive) | > 100 µM (inactive) | > 100 µM (inactive) | > 100 µM (inactive) | > 100 µM (inactive) | > 100 µM (inactive) | > 100 µM (inactive) | > 100 µM (inactive) | > 100 µM (inactive) | > 100 µM (inactive) |  |  | 
Nc1nc(N)c2c(-c3ccccc3)ccnc2n1 | > 100 µM (inactive) | > 100 µM (inactive) | > 100 µM (inactive) | > 100 µM (inactive) | > 100 µM (inactive) |  | > 100 µM (inactive) | > 100 µM (inactive) | > 100 µM (inactive) | > 100 µM (inactive) | > 100 µM (inactive) | > 100 µM (inactive) | > 100 µM (inactive) |  | > 100 µM (inactive) | 18.5 µM (inactive) | > 100 µM (inactive) | > 10 µM (inactive) | > 100 µM (inactive) | 
CC1=CC2=C(C#N)C(=O)OC2(C)C(c2ccccc2)C1 (stereo unspecified) |  | > 100 µM (inactive) | > 100 µM (inactive) | > 100 µM (inactive) | > 100 µM (inactive) | > 100 µM (inactive) | > 100 µM (inactive) | > 100 µM (inactive) |  | > 100 µM (inactive) |  | > 100 µM (inactive) | > 100 µM (inactive) | > 100 µM (inactive) | > 100 µM (inactive) | > 100 µM (inactive) | > 100 µM (inactive) | > 100 µM (inactive) | > 100 µM (inactive) | 16.2 µM (inactive)
COc1cc(C2SCC(=O)N2c2ccc(-n3c(-c4ccccc4)nc4ccccc4c3=O)cc2)ccc1O (stereo unspecified) | 49.3 µM (inactive) | 32.4 µM (inactive) | 97.9 µM (inactive) | 84.9 µM (inactive) | 69.5 µM (inactive) | > 100 µM (inactive) | > 100 µM (inactive) | > 100 µM (inactive) | 70 µM (inactive) | > 100 µM (inactive) |  | > 100 µM (inactive) | 84.5 µM (inactive) | > 100 µM (inactive) | > 100 µM (inactive) | > 100 µM (inactive) | 50.1 µM (inactive) | 24.2 µM (inactive) | > 100 µM (inactive) | 
CC(C)NC(=O)OCc1c(COC(=O)NC(C)C)n(C)c2c1ccc1cc(Cl)c(Cl)cc12 | 16.5 µM (inactive) | 13.8 µM (inactive) | 12.7 µM (inactive) | 15.9 µM (inactive) | 3.41 µM (inactive) | 11.6 µM (inactive) | 13.6 µM (inactive) | 11.7 µM (inactive) | 3.28 µM (inactive) |  | 12.2 µM (inactive) | 6.43 µM (inactive) | 16.6 µM (inactive) | 13.5 µM (inactive) | 15.7 µM (inactive) | 14.8 µM (inactive) | 11.7 µM (inactive) | 3.97 µM (inactive) | 1.75 µM (inactive) | 13.4 µM (inactive)
CCn1c2ccccc2c2cc(Nc3cc(C)[nH]c(=O)n3)ccc21 |  | > 100 µM (inactive) | > 100 µM (inactive) | > 100 µM (inactive) | > 100 µM (inactive) | > 100 µM (inactive) | 0.394 µM (active) | > 100 µM (inactive) | > 100 µM (inactive) | > 100 µM (inactive) | > 100 µM (inactive) | 0.33 µM (active) | 4.53 µM (inactive) | > 100 µM (inactive) | > 100 µM (inactive) | > 100 µM (inactive) | > 100 µM (inactive) |  | > 100 µM (inactive) | 
COc1c2c(cc3c1C(=O)c1c(O)cccc1C3=O)CC(O)CC2 (stereo unspecified) | > 100 µM (inactive) |  | 21.6 µM (inactive) | 50.9 µM (inactive) | > 100 µM (inactive) | 40.5 µM (inactive) | > 100 µM (inactive) | 23.6 µM (inactive) | > 100 µM (inactive) | 57.7 µM (inactive) |  | > 100 µM (inactive) | 19.2 µM (inactive) | 28.8 µM (inactive) | > 100 µM (inactive) | 29.8 µM (inactive) | 24.6 µM (inactive) | > 100 µM (inactive) | 22.8 µM (inactive) | 34.8 µM (inactive)
N=C1C=C(N)C(=O)c2[nH]c(=O)ccc21 | 1.8 µM (inactive) | 2.04 µM (inactive) | 1.91 µM (inactive) | 2.04 µM (inactive) | 2.92 µM (inactive) |  | 1.01 µM (active) | 1.73 µM (inactive) | 0.351 µM (active) | 8.13 µM (inactive) | 1.87 µM (inactive) | 1.09 µM (active) | 17.3 µM (inactive) | 2.21 µM (inactive) | 5.07 µM (inactive) | 1.92 µM (inactive) | 1.1 µM (active) | 3.5 µM (inactive) | 2.95 µM (inactive) | 
